Test results: US5677419A, “Cyclic vasoactive peptide analogs” (Hoffmann-La Roche Inc., priority 1994, dated 1997)
Where a SMILES comes first, the peptide text is derived from it. Bridges are numbered along the chain shown (N, C = ends). [ ]: non-standard residue; d: D form. Nle = CCCC[C@H](N)C(=O)O

Experiments:
[1] = tested on: guinea pig tracheal smooth muscle; assay: Tracheal relaxant activity of VIP analogs on isolated guinea pig tracheal rings; assay type: cell-based; conditions: cumulative concentration response, relaxation as % of maximum response to VIP (10^-6 M=100%), three tissues pooled, linear regression
Procedure, shortened: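 Male guinea pig tracheal rings under 1.5 g resting tension in Krebs at 37° C, 95% O2/5% CO2, isometric tension. Cumulative concentration-response curves; relaxation as % of response to 10^-6 M VIP added at end; three tissues pooled, EC50 by linear regression.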

guinea pigs = assay: In vivo bronchodilator activity by tracheal instillation against histamine challenge; parameters: species or system guinea pig; conditions: anesthetized male guinea pigs, inhibition of histamine (i.v.)-induced rise in tracheal pressure
Procedure, shortened: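 Urethane-anaesthetised male Hartley guinea pigs (400-600 g) received compound in water by intratracheal instillation, then were paralysed, ventilated and challenged with histamine […] i.v. Tracheal pressure change gave % inhibition (≥3 animals/group); ED50 from log dose-response; duration as time until inhibition fell to 40%.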

Row | SMILES | EC50 [1] | Bronchodilator activity of VIP analogs in guinea pigs, ED50 (guinea pigs)
1 | CCCC[C@H](NC(=O)[C@H](CCC(N)=O)NC(=O)[C@H](CCCCN)NC(=O)[C@H](CCCNC(=N)N)NC(=O)[C@H](CC(C)C)NC(=O)[C@H](CCCCN)NC(=O)[C@@H](NC(=O)[C@H](Cc1ccc(O)cc1)NC(=O)[C@H](CC(N)=O)NC(=O)[C@H](CCC(=O)O)NC(=O)[C@@H](NC(=O)[C@H](Cc1ccccc1)NC(=O)[C@@H](NC(=O)[C@H](C)NC(=O)[C@H](CC(=O)O)NC(=O)[C@H](CO)NC(=O)[C@H](Cc1c[nH]cn1)NC(C)=O)C(C)C)[C@@H](C)O)[C@@H](C)O)C(=O)N[C@@H](C)C(=O)N[C@H](C(=O)N[C@@H](CCCCN)C(=O)N[C@H]1CCCCNC(=O)C[C@@H](C(=O)N[C@@H](CC(C)C)C(=O)N[C@@H](CCCCN)C(=O)N[C@@H](CCCCN)C(=O)NCC(=O)NCC(=O)N[C@H](C(N)=O)[C@@H](C)O)NC(=O)[C@H](CC(N)=O)NC(=O)[C@H](CC(C)C)NC(=O)[C@H](Cc2ccc(O)cc2)NC1=O)C(C)C [SEQ ID NO:68, Ac-[Glu^8,Lys^12,Nle^17,Asp^25,Leu^26,Lys^27,28,Gly^29,30,Thr^31]-VIP cyclo (Lys^21 →Asp^25)] (Ac-HSDAVFTENYTKLRKQ[Nle]AVKKYLNDLKKGGT-NH2; lactam 21-25) | 0.43 nM | 0.04 μg
2 | CCCC[C@H](NC(=O)[C@H](CCC(N)=O)NC(=O)[C@H](CCCCN)NC(=O)[C@H](CCCNC(=N)N)NC(=O)[C@H](CC(C)C)NC(=O)[C@H](CCCCN)NC(=O)[C@@H](NC(=O)[C@H](Cc1ccc(O)cc1)NC(=O)[C@H](CC(N)=O)NC(=O)[C@H](CC(=O)O)NC(=O)[C@@H](NC(=O)[C@H](Cc1ccccc1)NC(=O)[C@@H](NC(=O)[C@H](C)NC(=O)[C@H](CC(=O)O)NC(=O)[C@H](CO)NC(=O)[C@H](Cc1c[nH]cn1)NC(C)=O)C(C)C)[C@@H](C)O)[C@@H](C)O)C(=O)N[C@@H](C)C(=O)N[C@@H](C)C(=O)N[C@@H](CCCCN)C(=O)N[C@H]1CCCCNC(=O)C[C@@H](C(=O)N[C@@H](CC(C)C)C(=O)N[C@@H](CCCCN)C(=O)N[C@@H](CCCCN)C(=O)N[C@@H](C)C(=O)N[C@@H](C)C(=O)N[C@@H](C)C(N)=O)NC(=O)[C@H](CC(N)=O)NC(=O)[C@H](CC(C)C)NC(=O)[C@H](Cc2ccc(O)cc2)NC1=O [SEQ ID NO:69, Ac-[Lys^12,Nle^17,Ala^19,Asp^25,Leu^26,Lys^27,28,Ala^29-31]-VIP cyclo (Lys^21 →Asp^25)] (Ac-HSDAVFTDNYTKLRKQ[Nle]AAKKYLNDLKKAAA-NH2; lactam 21-25) | 0.42 nM | 0.04 μg
3 | CC[C@H](C)[C@H](NC(=O)[C@H](CO)NC(=O)[C@H](CC(N)=O)NC(=O)[C@H](CC(C)C)NC(=O)[C@H](Cc1ccc(O)cc1)NC(=O)[C@H](CCCCN)NC(=O)[C@H](CCCCN)NC(=O)[C@@H](NC(=O)[C@H](C)NC(=O)[C@H](CCSC)NC(=O)[C@H](CCC(N)=O)NC(=O)[C@H](CCCCN)NC(=O)[C@H](CCCNC(=N)N)NC(=O)[C@H](CC(C)C)NC(=O)[C@H](CCCNC(=N)N)NC(=O)[C@@H](NC(=O)[C@H](Cc1ccc(O)cc1)NC(=O)[C@H](CC(N)=O)NC(=O)[C@H](CC(=O)O)NC(=O)[C@@H](NC(=O)[C@H](Cc1ccccc1)NC(=O)[C@@H](NC(=O)[C@H](C)NC(=O)[C@H](CC(=O)O)NC(=O)[C@H](CO)NC(=O)[C@@H](N)Cc1c[nH]cn1)C(C)C)[C@@H](C)O)[C@@H](C)O)C(C)C)C(=O)N[C@@H](CC(C)C)C(=O)N[C@@H](CC(N)=O)C(N)=O [VIP, Vasoactive intestinal peptide, reference compound] | 10 nM | 7.3 μg
